Type in all cases: in vivo
One assay concerns Tetranychus urticae. The assay can be described thus: Tetranychus urticae test (OP-resistent, dip application). The note with it: bush beans dipped. The text has this:
(§1) The expected activity for a given combination of two active compounds can be calculated according to S. R. Colby, Weeds 15 (1967), 20-22) as follows:
(§2) If • X is the kill rate, expressed in % of the untreated control, when employing active compound A at an application rate of m g/ha or in a concentration of m ppm, • Y is the kill rate, expressed in % of the untreated control, when employing active compound B at an application rate of n g/ha or in a concentration of n ppm and • E is the kill rate, expressed in % of the untreated control, when employing active compounds A and B at application rates of m and n g/ha or in a concentration of m and n ppm, then
(§3) If the actual insecticidal kill rate is higher than the calculated one, the kill rates of the combination are superadditive, i.e. a synergistic effect is present. In this case, the kill rate that is actually observed has to be higher than the value, calculated using the formula above, for the expected kill rate (E).
To produce a suitable preparation of active compound, 1 part by weight of active compound is mixed with the stated amounts of solvent and emulsifier, and the concentrate is diluted with water to the desired concentrations. […]
After the desired period of time, the kill in % is determined. […]

A further assay relates to Aphis gossypii. Put plainly: Aphis gossypii test (cotton leaves, dip). The note with it: cotton leaves dipped.
Description: as §1, §2, §3
(§4) To produce a suitable preparation of active compound, 1 part by weight of active compound is mixed with the stated amounts of solvent and emulsifier, and the concentrate is diluted with emulsifier-containing water to the desired concentration.
Cotton leaves (Gossypium hirsutum) heavily infested by the cotton aphid (Aphis gossypii) are treated by being dipped into the preparation of active compound of the desired concentration.
After the desired period of time, the kill in % is determined 100% means that all aphids have been killed; 0% means that none of the aphids have been killed. The determined kill rates are entered into Colby's formula (see page 71).

A further assay relates to Myzus persicae. Put plainly: Myzus persicae test (cabbage leaves, dip). As to conditions: cabbage leaves dipped; for Kill rate in % after 1 d, found: 4 ppm.
Description: as §1, §2, §3, §4
Cabbage leaves (Brassica oleracea) which are heavily infested by the green peach aphid (Myzus persicae) are treated by being dipped into the preparation of active compound of the desired concentration.
After the desired period of time, the kill in % is determined. 100% means that all aphids have been killed; 0% means that none of the aphids have been killed. The determined kill rates are entered into Colby's formula (see page 71).

SMILES strings stand for the structures.

Results on four molecules are retold here after patent publication US8993480B2, “Active ingredient combinations with insecticidal properties” (Bayer CropScience AG, priority 2006, dated 2015).

In the case of `CCOC(=O)OC1=C(c2cc(C)ccc2C)C(=O)N[C@]12CC[C@@H](OC)CC2` [spirotetramat], the “Kill rate in % after 7 d, found” value in the assay on Tetranychus urticae (0.8 ppm) is given as 25%. In addition, the “Kill rate in % after 6 d, found” value with Aphis gossypii (4 ppm) came out at 15%; in the assay on Myzus persicae (0.8 ppm), 10%.

In the case of `Cc1nn(C)c(/C(OC(=O)C(C)(C)C)=C(\C#N)c2ccc(C(C)(C)C)cc2)c1C` [cyenopyrafen], the “Kill rate in % after 1 d, found” value in the assay with Myzus persicae was 0%.

As for `CNC(=O)c1cc(C#N)cc(C)c1NC(=O)c1cc(Br)nn1-c1ncccc1Cl` [compound (5)], in the assay with Tetranychus urticae (0.16 ppm), the “Kill rate in % after 7 d, found” value worked out at 0%. In addition, the “Kill rate in % after 6 d, found” value turned out to be 45% in the assay on Aphis gossypii (0.8 ppm) and 5% in the assay with Myzus persicae (0.16 ppm). Moreover, in the assay on Myzus persicae, the “Kill rate in % after 1 d, found” value was found to be 10%.

For the molecule `COCCOC(=O)C(C#N)(C(=O)c1ccccc1C(F)(F)F)c1ccc(C(C)(C)C)cc1` (stereo not drawn) [cyflumetofen], the “Kill rate in % after 6 d, found” value in the assay on Aphis gossypii (0.16 ppm) was 0%.
